The values below come from patent US10434097B1, “Methods and compositions for treating hearing disorders” (GATEWAY BIOTECHNOLOGY, INC., priority 2015, dated 2019).

The subject of series [1] is CBA/CaJ mice. Kind of series: Prepulse inhibition (PPI), sensory gating (Example 4). It counts as in vivo. On the procedure: TET effects on sensory gating were evaluated using a prepulse inhibition (PPI) procedure. Mice were placed in a plastic restrainer situated on a plate with a pressure sensor. Any animal motion was detected by the sensor which measured its amplitude. TET at various dosages was injected (i. p.) 1 h before the test. For this study, CBA/CaJ mice were divided into four groups: control with saline injection only (n=6; 2 males), TET at 30 mg/kg (n=6; 3 males), 60 mg/kg (n=10; 5 males) and 120 mg/kg (n=6; 2 males). For all groups, the ratio between the PPI and startle amplitude was measured (FIG. 4). […] Thus, TET at 120 mg/kg has no toxic effects on sensory gating in the CBA/CaJ mouse.

The test system of series [2] is CBA/CaJ mice. Kind of series: Accelerating rotarod, chronic TET use (Example 1). The following applies: 120 mg/kg i.p. for five days, two-month old mice, two-way ANOVA p>0.05. It counts as in vivo. How it is done: CBA/CaJ mice were purchased from The Jackson Laboratory. One to five mice were housed per cage with food and water available in a noise-controlled environment on a 12-hr light/dark cycle with light onset at 6:00 a.m. TET was obtained from Sigma Chemical Co. (St. Louis, Mo.). The drug solution was injected (i.p.) for the treated groups. Control mice were given saline injection only. The amount of water/food intake was monitored daily and body weight was monitored weekly. Drug neurotoxic effects on sensory motor coordination were assessed on two-month old CBA/CaJ mice using the accelerating rotarod method. Mice were trained on the task for 5 days in order to achieve stable performance before either being treated by intraperitoneal (i.p.) injections with TET at 120 mg/kg body weight (n=5) or saline (n=6).
For orientation: In the rotarod test animals must keep their balance on a rotating rod.

Series [3] relates to mice. Description: Salicylate-induced tinnitus model, SBAD Go/No-Go (Example 12). It counts as in vivo. Conditions: before or after drug injections, at these dosages. The source says:
The SBAD method with Go/No-Go paradigm was used for behavioral test in mice. For “Go” trial animals were trained to move from one compartment to another upon presentation of a sound. For “No-Go” trial animals were trained to stay in the compartment. Otherwise they received a shock. “Go” paradigm was used to monitor motor, motivation, and memory functions while “No-Go” was used to detect tinnitus-like behavior. A baseline was established for each mouse over three consecutive days. The same SBAD method was repeated one hour after intraperitoneal injections of sodium salicylate (400 mg/kg), and two hours after TET injections.

The test system of series [4] is CBA/CaJ mice. Kind of series: NIHL, white noise 110 dB SPL 30 min, ABR TTS, repeated TET (Example 6). Conditions: 120 mg/kg two days before and three days after noise. It counts as in vivo. The source says: The average TTS across all test frequencies was 69.7 dB for the control group, 62.9 dB for the TET-treated group (about 6.8 dB of protection).
For series [5], the system named is mice. Kind of series: Noise-induced tinnitus model, SBAD Go/No-Go (Example 12). It counts as in vivo. The source says: The SBAD method with Go/No-Go paradigm was used for behavioral test in mice. For “Go” trial animals were trained to move from one compartment to another upon presentation of a sound. For “No-Go” trial animals were trained to stay in the compartment. Otherwise they received a shock. “Go” paradigm was used to monitor motor, motivation, and memory functions while “No-Go” was used to detect tinnitus-like behavior. One ear was exposed to a 120 dB noise (4-25 kHz) for two hours for this noise-induced tinnitus model. DPOAE and ABR were measured to monitor possible hearing loss in each ear 2 weeks after noise exposure. SBAD measurements were made 2, 4, and 8 weeks after noise exposure, and also after TET (0, 30, 60, 90 mg/kg) injection.

The subject of series [6] is CBA/CaJ mice. Description: Early noise-induced accelerated ARHL model, ABR thresholds (Example 2). The class given is in vivo. The following applies: three months after noise exposure (4-25 kHz, 110 dB SPL, 30 min); TET three days before and two days after exposure. How it is done: Currently, no FDA-approved medications against ARHL are available. Two-month old CBA/CaJ mice were exposed to octave band (4-25 kHz) noise at 110 dB SPL for 30 minutes. This is a well-established noise model for our drug screenings since the noise exposure leads to dramatic acute and permanent hearing threshold shifts 24 hours and two weeks post-exposure respectively. In addition, apparently accelerated age-related increase in the auditory brainstem response (ABR) thresholds were observed three months after the noise exposure in the control group (n=6), up to approximately 50 dB at 40 kHz. Mice treated with TET (n=5) three days before and two days after the noise exposure had only about an increase of 10 dB at 40 kHz three months after exposure (FIG. 2). […] Thus, TET treatment at a young age could prevent accelerated age-related hearing loss due to early noise exposure.

In series [7] the test system is CBA/CaJ mice. Description: Accelerating rotarod test, motor coordination after single injection (Example 3). It counts as in vivo. The following applies: 1 and 3 h after injection. How it is done: FIG. 3 illustrates the effects of TET on mouse rotarod performance test. CBA/CaJ mice were tested before TET treatment (baseline) and one and three hours (1 h, 3 h) after TET treatment (i.p.). The latency to fall were shown as mean+/−S.E.M.
TET effects on motor coordination were evaluated on the accelerating rotarod test. the rotating speed was increased with an acceleration rate of 10 rpm/min. The length of time that each animal was able to stay on the rod was recorded as the latency to fall. TET was dissolved in 0.1 N HCl at a concentration of 50 mg/ml, and the pH was adjusted to 6.8-7.0 before diluted in saline. Mice were injected intraperitoneally (i.p.) with saline (baseline) or different TET dosages. Rotarod performance was evaluated at 1 and 3 h after injection (FIG. 3). […] No significant gender effect was detected at either time point (p>0.1).

For series [8] the following is noted: rats, cited from earlier work.
The conditions of series [9]: higher dosages; abdominal distension, diarrhea, dry eye, itching, hyperpigmentation, mildly elevated liver enzymes; resolve after discontinuance; cited from earlier work.
The test system of the next series is C57BL/6J mice. Description: Rodent avoidance (shuttle box) test, memory (Example 5). The class given is in vivo. How it is done:
FIG. 5 illustrates the effects of TET on mouse avoidance test. C57BL/6J mice were trained to move in the shuttle box when a sound was present. After 10 days of training, the latency of their avoidance test was recored and compared between the control (0) and drug-treated groups. Data are shown as means+/−S.E.M.
TET effects on memory were evaluated in mice with a rodent avoidance system, which consisted of two compartments of equal size (12.5 cm×20 cm×20 cm) that were connected by a door. Infrared LEDs were used to monitor rodent movement in each compartment. Sound cues were delivered via piezo tweeters in the ceiling of the compartments. Animals were trained to move from one compartment to the other upon presentation of the sound. […] The trials and responses were collected. Behavioral responses of mice with or without TET injection were measured after injection (FIG. 5). […] Again, one time administration of TET at 120 mg/kg had no significant toxic effects on memory in mice.

The mark [10] stands for this setting: single oral administration 50 mg/kg.

Consider `COc1ccc2cc1Oc1ccc(cc1)C[C@H]1c3cc(c(OC)cc3CCN1C)Oc1c(OC)c(OC)cc3c1[C@H](C2)N(C)CC3` [TET, tetrandrine], for which the “ratio between PPI and startle amplitude, pre- vs post-treatment” value in the series on CBA/CaJ mice [1] (30 mg/kg i.p. 1 h before test), in the series with CBA/CaJ mice [1] (60 mg/kg i.p. 1 h before test) and in the series with CBA/CaJ mice [1] (120 mg/kg i.p. 1 h before test) was “No significant differences” each time. Moreover, the “rotarod latency to fall vs control” value with CBA/CaJ mice [2] was “not significantly different”. For the same compound, the “"Go" testing (motor, motivation, memory functions)” value in the series with mice [3] is on record as “No significant changes”. Besides, in the series on CBA/CaJ mice [4], the “protection (TTS difference to control)” value is listed as “about 6.8 dB”. Also, in the series with CBA/CaJ mice [4] (24 hours after exposure, four month-old mice (control 69.7 dB)), the “average TTS across all test frequencies” value was 62.9 dB. Moreover, the “"Go" trials (motor, motivation, memory functions)” value in the series on mice [5] is given as “No significant changes”. For the same compound, the “increase of ABR threshold at 40 kHz” value in the series with CBA/CaJ mice [6] is approximately 10 dB. Besides, the “rotarod performance (latency to fall) vs baseline” value in the series on CBA/CaJ mice [7] (60 mg/kg i.p.) and with CBA/CaJ mice [7] (120 mg/kg i.p.) was “no significant side effects” throughout. For the same compound, the “drug elimination from plasma” value in series [8] (between 12.5 to 25 mg/kg) is given as “consistent with linear kinetics”. In [8] (setting [10]), the “area under the curve (AUC)” value was 6279.2 ± 2411.5 ng·h/mL. Further, the “half time (T½)” value in series [8] (setting [10]) is 20.6 ± 3.7 h. Besides, the drug concentration-curve model result in [8] is given as “fits well with a two-compartment open model”. In [9], the “side effects in patients” value was “limited side effects”. Further, the “avoidance test latency to cross vs control” value in the series on C57BL/6J mice (60 mg/kg) is “No significant difference”; with C57BL/6J mice (120 mg/kg), “No significant difference”; with C57BL/6J mice (180 mg/kg, one-tailed t-test p<0.05) it was “significant increase”.
